# Reference: patent US10538567B2, “Compounds as peptidic trigonal GLP1/glucagon/GIP receptor agonists” (priority 2016, dated 2020)
# Numbered stars: 1 amine (or outer) side, 2 acyl side, 3 side chain; on linkers, the order of the positions; unused ones are H or OH. Square brackets hold non-standard residues; d marks the D form. Side chains are listed from the residue outwards. Peptide text beside a SMILES is read from it. * marks the point of attachment. γGlu = O=C(O)[C@H](CCC(=O)[*:2])N[*:1]; Palmitoyl = CCCCCCCCCCCCCCCC(=O)*; Aib = CC(C)(N)C(=O)O
# How the values were obtained:
# [1] = Chemical stability assessment, UPLC-UV purity loss in buffer system A; format: physicochemical; details: 1 mg/ml, 25 mM acetate buffer pH 4.5 with m-cresol
# How it was run: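 Peptide at 1 mg/mL pure compound (purity-corrected) in 25 mM acetate buffer pH 4.5 with L-methionine, m-cresol and glycerol was sterile-filtered and stored 28 days at 5 and 40° C. UPLC-UV purity (peptide peak area/total area) was compared with the starting value to give relative purity loss in %.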
# [2] = Thioflavin T (ThT) assay for physical stability (fibrillation); format: physicochemical; details: 3 mg/ml, 100 mM acetate pH 4.5 with m-cresol, 37° C. shaking
# How it was run: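 Peptides at 3 mg/ml final with 100 μM ThT final in 100 mM acetate pH 4.5 containing 2.7 mg/mL m-cresol, eight replicates. Stressed at 37° C by repeated cycles of 10 s shaking at 960 rpm and 50 s rest. Fluorescence read every 20 minutes; lag time in hours taken from the sigmoidal kinetic curve.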
# [3] = test system: female diabetic db/db mice; assay: Acute effects after s.c. treatment on blood glucose in non-fasting female diabetic db/db mice; format: in vivo; details: single 30 μg/kg s.c.
# Procedure: Female healthy, lean BKS.Cg-(lean)/OlaHsd and diabetes-prone, obese BKS.Cg-+Lepr^db/+Lepr^db/OlaHsd mice were ordered group housed from Envigo RMS Inc., shipped group housed and remained group housed in shoebox caging with wood chip bedding until day 15 of the predose phase. At the study start mice were approximately 12 weeks old.
# Mice were housed under vivarium conditions including a 12 h light/dark cycle (light phase 04:00 AM-4:00 PM), room temperatures between 23-26° C. and a relative humidity between 30-70%. All animals had free access to water and Purina Fomulab Diet 5008.
# On predose day 9 blood glucose and body mass (approximately between 08:00-10:00 AM) as well as HbA1c measurements were performed. On day 15 of the predose phase animals were assigned to treatment groups (n=8) and to new cages to match mean HbA1c and body masses between all db/db groups. An age-matched lean group was included in the study as a healthy, lean reference.
# Prior to day 1 of the dosing phase, the test article was diluted with Phosphate Buffered Saline (PBS, Gibco, without CaCl2 and MgCl2) to a concentration of 1 mg/mL and aliquots of this stock solution were stored at approximately ≤−60° C. On day 1 of the dosing phase the stock aliquot was thawed and the injected test article solution was prepared fresh by diluting it with PBS to achieve the desired concentration.
# On Day 1 of the dosing phase db/db mice were either treated once with a s.c. injection of PBS-vehicle or 30 μg/kg test article. The lean reference group was treated once with a s.c. injection of PBS-vehicle. The dosing was initiated and completed between 08:00 and 10:00 AM. The applied volume was 5 ml/kg and the dose was adjusted to the most recent body mass recording of each individual.
# Animals had unlimited access to water and feed during the experiment. On day 1 of the dosing phase approximately 5 μL of blood were collected via tail clips at minute −30 and 0 prior to any other inlife activities. At minute 0 mice received a s.c. dose of either PBS-vehicle or 30 μg/kg test article. Further blood samples were harvested at hour 0.25, 0.5, 1, 1.5, 2, 3, 4, 6, 8, and 24 post-dose. Glucose measurements were performed in whole blood using AlphaTRAK glucometers. If the glucose concentrations of two measurements differed by more than 20 mg/dL a third value was recorded. The Area Under the Curve (AUC) for blood glucose was calculated via the trapezoid method and for the duration of the 24 post-dose hours.
# In the Figures data are depicted as means±SEM. […] A One Way Analysis of Variance and multiple comparisons (Dunnett's Method) were performed comparing the group of diabetic, obese db/db vehicle mice (n=8) with each diabetic, obese db/db test article treated mice (n=8). […] Non-diabetic, lean-vehicle group data are depicted in the Figures serving as a reference dataset for the non-obese, non-diabetic state.
Compound,Chemical stability [relative purity loss 28 days 40° C.] (%) at pH 4.5 [1],Lag time before increase [2],mean blood glucose concentration 24 hours post-dose relative to baseline [3],time to normalise hyperglycemia to the non-fasting blood glucose concentrations of lean reference mice [3]
"CCCCCCCCCCCCCCCC(=O)N[C@@H](CCC(=O)N[C@@H](CCC(=O)NCCCC[C@H](NC(=O)[C@H](CC(C)C)NC(=O)[C@H](CCCCN)NC(=O)[C@H](CO)NC(=O)[C@H](CC(C)C)NC(=O)[C@H](CC(=O)O)NC(=O)[C@H](CO)NC(=O)[C@@H](NC(=O)[C@H](Cc1ccccc1)NC(=O)[C@@H](NC(=O)CNC(=O)[C@H](Cc1c[nH]cn1)NC(=O)C(C)(C)NC(=O)[C@@H](N)Cc1c[nH]cn1)[C@@H](C)O)[C@@H](C)O)C(=O)N[C@@H](CCC(=O)O)C(=O)N[C@@H](CCC(=O)O)C(=O)N[C@@H](CCC(N)=O)C(=O)N[C@@H](CCCNC(=N)N)C(=O)N[C@@H](CCC(N)=O)C(=O)NC(C)(C)C(=O)N[C@@H](CCC(=O)O)C(=O)N[C@@H](Cc1ccccc1)C(=O)N[C@H](C(=O)N[C@@H](CCC(=O)O)C(=O)N[C@@H](Cc1c[nH]c2ccccc12)C(=O)N[C@@H](CC(C)C)C(=O)N[C@@H](CCCCN)C(=O)N[C@@H](C)C(=O)NCC(=O)NCC(=O)N1CCC[C@H]1C(=O)N1CCC[C@H]1C(=O)N[C@@H](CO)C(=O)NC(C)(C)C(=O)N[C@@H](CCCCN)C(=O)N1CCC[C@H]1C(=O)N1CCC[C@H]1C(=O)N1CCC[C@H]1C(=O)N[C@@H](CCCCN)C(N)=O)[C@@H](C)CC)C(=O)O)C(=O)O [SEQ ID NO: 10, H-Aib-H-G-T-F-T-S-D-L-S-K-L-K[gGlu-gGlu-Palm]-E-E-Q-R-Q-Aib-E-F-I-E-W-L-K-A-G-G-P-P-S-Aib-K-P-P-P-K-NH2]",10.6%,>45 h,at or close to baseline,–
"CCCCCCCCCCCCCCCC(=O)N[C@@H](CCC(=O)N[C@@H](CCC(=O)NCCCC[C@H](NC(=O)[C@H](CC(C)C)NC(=O)[C@H](CCCCN)NC(=O)[C@H](CO)NC(=O)[C@H](CC(C)C)NC(=O)[C@H](CC(=O)O)NC(=O)[C@H](CO)NC(=O)[C@@H](NC(=O)[C@H](Cc1ccccc1)NC(=O)[C@@H](NC(=O)CNC(=O)[C@H](Cc1c[nH]cn1)NC(=O)C(C)(C)NC(=O)[C@@H](N)Cc1c[nH]cn1)[C@@H](C)O)[C@@H](C)O)C(=O)N[C@@H](CCC(=O)O)C(=O)N[C@@H](CCC(=O)O)C(=O)N[C@@H](CCC(N)=O)C(=O)N[C@@H](CCCNC(=N)N)C(=O)N[C@@H](CCC(N)=O)C(=O)NC(C)(C)C(=O)N[C@@H](CCC(=O)O)C(=O)N[C@@H](Cc1ccccc1)C(=O)N[C@H](C(=O)N[C@@H](CCC(=O)O)C(=O)N[C@@H](Cc1c[nH]c2ccccc12)C(=O)N[C@@H](CC(C)C)C(=O)N[C@@H](CCCCN)C(=O)N[C@@H](C)C(=O)N[C@H](C)C(=O)NCC(=O)N1CCC[C@H]1C(=O)N1CCC[C@H]1C(=O)N[C@@H](CO)C(=O)NC(C)(C)C(=O)N[C@@H](CCCCN)C(=O)N1CCC[C@H]1C(=O)N1CCC[C@H]1C(=O)N1CCC[C@H]1C(=O)N[C@@H](CCCCN)C(N)=O)[C@@H](C)CC)C(=O)O)C(=O)O [SEQ ID NO: 11, H-Aib-H-G-T-F-T-S-D-L-S-K-L-K[gGlu-gGlu-Palm]-E-E-Q-R-Q-Aib-E-F-I-E-W-L-K-A-dAla-G-P-P-S-Aib-K-P-P-P-K-NH2] (H-H[Aib]HGTFTSDLSKLK([γGlu-γGlu-Palmitoyl])EEQRQ[Aib]EFIEWLKA[dA]GPPS[Aib]KPPPK-NH2)",8.8%,>45 h,still below baseline concentrations,≤ 6 h
"CCCCCCCCCCCCCCCC(=O)N[C@@H](CCC(=O)N[C@@H](CCC(=O)NCCCC[C@H](NC(=O)[C@H](CC(C)C)NC(=O)[C@H](CCCCN)NC(=O)[C@H](CO)NC(=O)[C@H](CC(C)C)NC(=O)[C@H](CC(=O)O)NC(=O)[C@H](CO)NC(=O)[C@@H](NC(=O)[C@H](Cc1ccccc1)NC(=O)[C@@H](NC(=O)CNC(=O)[C@H](Cc1c[nH]cn1)NC(=O)C(C)(C)NC(=O)[C@@H](N)Cc1c[nH]cn1)[C@@H](C)O)[C@@H](C)O)C(=O)N[C@@H](CCC(=O)O)C(=O)N[C@@H](CCC(=O)O)C(=O)N[C@@H](CCC(N)=O)C(=O)N[C@@H](CCCNC(=N)N)C(=O)N[C@@H](CCC(N)=O)C(=O)NC(C)(C)C(=O)N[C@@H](CCC(=O)O)C(=O)N[C@@H](Cc1ccccc1)C(=O)N[C@H](C(=O)N[C@@H](CCC(=O)O)C(=O)N[C@@H](Cc1c[nH]c2ccccc12)C(=O)N[C@@H](CC(C)C)C(=O)N[C@@H](CCCCN)C(=O)N[C@@H](C)C(=O)NCC(=O)NCC(=O)N[C@@H](Cc1c[nH]cn1)C(=O)N1CCC[C@H]1C(=O)N[C@@H](CO)C(=O)NC(C)(C)C(=O)N[C@@H](CCCCN)C(=O)N1CCC[C@H]1C(=O)N1CCC[C@H]1C(=O)N1CCC[C@H]1C(=O)N[C@@H](CCCCN)C(N)=O)[C@@H](C)CC)C(=O)O)C(=O)O [SEQ ID NO: 12, H-Aib-H-G-T-F-T-S-D-L-S-K-L-K[gGlu-gGlu-Palm]-E-E-Q-R-Q-Aib-E-F-I-E-W-L-K-A-G-G-H-P-S-Aib-K-P-P-P-K-NH2]",11.9%,>45 h,at or close to baseline,–
"CCCCCCCCCCCCCCCC(=O)N[C@@H](CCC(=O)N[C@@H](CCC(=O)NCCCC[C@H](NC(=O)[C@H](CC(C)C)NC(=O)[C@H](CCCCN)NC(=O)[C@H](CO)NC(=O)[C@H](CC(C)C)NC(=O)[C@H](CC(=O)O)NC(=O)[C@H](CO)NC(=O)[C@@H](NC(=O)[C@H](Cc1ccccc1)NC(=O)[C@@H](NC(=O)CNC(=O)[C@H](Cc1c[nH]cn1)NC(=O)C(C)(C)NC(=O)[C@@H](N)Cc1c[nH]cn1)[C@@H](C)O)[C@@H](C)O)C(=O)N[C@@H](CCC(=O)O)C(=O)N[C@@H](CCC(=O)O)C(=O)N[C@@H](CCC(N)=O)C(=O)N[C@@H](CCCNC(=N)N)C(=O)N[C@@H](CCC(N)=O)C(=O)NC(C)(C)C(=O)N[C@@H](CCC(=O)O)C(=O)N[C@@H](Cc1ccccc1)C(=O)N[C@H](C(=O)N[C@@H](CCC(=O)O)C(=O)N[C@@H](Cc1c[nH]c2ccccc12)C(=O)N[C@@H](CC(C)C)C(=O)N[C@@H](CCCCN)C(=O)N[C@@H](C)C(=O)N[C@H](C)C(=O)NCC(=O)N[C@@H](Cc1c[nH]cn1)C(=O)N1CCC[C@H]1C(=O)N[C@@H](CO)C(=O)NC(C)(C)C(=O)N[C@@H](CCCCN)C(=O)N1CCC[C@H]1C(=O)N1CCC[C@H]1C(=O)N1CCC[C@H]1C(=O)N[C@@H](CCCCN)C(N)=O)[C@@H](C)CC)C(=O)O)C(=O)O [SEQ ID NO: 13, H-Aib-H-G-T-F-T-S-D-L-S-K-L-K[gGlu-gGlu-Palm]-E-E-Q-R-Q-Aib-E-F-I-E-W-L-K-A-dAla-G-H-P-S-Aib-K-P-P-P-K-NH2] (H-H[Aib]HGTFTSDLSKLK([γGlu-γGlu-Palmitoyl])EEQRQ[Aib]EFIEWLKA[dA]GHPS[Aib]KPPPK-NH2)",10.5%,>45 h,at or close to baseline,–
